Data as given in paper PMC10859961, “Ir(III) Half-Sandwich Photosensitizers with a π-Expansive Ligand for Efficient Anticancer Photodynamic Therapy” (Journal of Medicinal Chemistry, 2024).
Like-named read-outs stand apart in the source and are kept apart here.

What was measured:
1BR.3.G = test: CyQUANT cell viability assay, dark or blue light; assay type: cell-based, human; settings: for IC50: 48 h; for PI (IC50,dark/IC50,light): blue light 460 nm
Experimental: (§1) Cells were cultured in 96-well plates at a density of 3000 (A549), 2500 (HeLa), or 5000 (PC-3, 1BR.3.G, and MRC-5) cells per well in cell culture medium and allowed to attach for 24 h. Solutions of the complexes at different concentrations were prepared for cell treatments. In all cases, the solid compounds were weighed using an analytical balance (Mettler Toledo AX205DR) to ensure precise measurements. Subsequently, 5 mM solutions were prepared using DMSO. Solutions were then diluted in water to reach a concentration of 1 mM and then, aliquots were taken and diluted in culture medium to obtain solutions ranging from 0 to 50 μM. […] The cells were treated with these solutions in dark conditions or following the photoactivation protocol (see below). 48 h later the treatments were removed, and cells were washed with phosphate-buffered saline (PBS).
(§2) Initially, the effect of the complexes on the cell viability was determined by the 3-(4,5-dimethylthiazol-2-yl)-2,5-diphenyltetrazolium bromide (MTT) assay.[147] The cells were incubated for 2 h with 100 μL of culture medium together with 10 μL of MTT (Sigma-Aldrich) at 0.5 mg/mL. After discarding the medium, DMSO was added to each well to dissolve the purple formazan crystals. The absorbance of each well was determined on a Multiscan Plate Reader (Synergy 4, Biotek, Winooski) at a wavelength of 570 nm. Cell viability was also assessed using the CyQUANT Direct Cell Proliferation Assay (Thermo Fisher Scientific), following the manufacturer’s instructions. Briefly, after the treatments, the cells were washed with PBS, and an equal volume of culture medium and CyQUANT mix was added to each well. The plates were then incubated for 1 h at 37 °C. Subsequently, the fluorescence intensity was bottom read using a Multiscan Plate Reader (Synergy 4, Biotek, Winooski) with excitation and emission filters of 485 and 528 nm, respectively. In both assays, at least three replicates were measured for each treatment. The concentration that reduces the cell viability by 50% (IC50) was established using the Gen5 software (BioTek). Three independent experiments were carried out for each compound. […] The phototoxicity index (PI = IC50,dark/IC50,light) was determined.
(§3) To assess the photodynamic activity of the complexes, cells were incubated with the complexes for 4 h to enable their intracellular accumulation. The cells were then irradiated with light with a wavelength of 460 nm (blue), 530 nm (green), or 655 nm (red) for 1 h using a LED system (LuxLight) with an effective power of 6.7 mW cm^–2, which provides a total light dose of 24.1 J cm^–2. The LED system was positioned at 25 mm from the cell culture plates.

A549 = test: CyQUANT cell viability assay, dark or blue light; assay type: cell-based, human; settings: for PI/Dose / IC50 / PI (IC50,dark/IC50,light): A549; for PI/Dose: 460 nm, dose 24.1 J cm‐2, PI from CyQUANT; for IC50: 48 h; for IC50 / PI (IC50,dark/IC50,light) / photoselectivity: IC50,light in A549 lower than IC50,dark in MRC-5 / phototoxicity indexes: CyQUANT; for PI (IC50,dark/IC50,light): blue light 460 nm; for photoselectivity: IC50,light in A549 lower than IC50,dark in MRC-5: A549 blue light vs nonirradiated MRC-5 lung fibroblasts; for phototoxicity indexes: three cancer cell lines (A549, HeLa, PC-3), blue light
Experimental: as §1, §2, §3

HeLa = test: CyQUANT cell viability assay, dark or blue light; assay type: cell-based, human; settings: for IC50: 48 h; for IC50 / PI (IC50,dark/IC50,light): CyQUANT; for PI (IC50,dark/IC50,light): blue light 460 nm
Experimental: as §1, §2, §3

MRC-5 = test: CyQUANT cell viability assay, dark or blue light; assay type: cell-based, human; settings: for PI (IC50,dark/IC50,light): MRC-5, blue light 460 nm; for IC50: 48 h
Experimental: as §1, §2, §3

PC-3 = test: CyQUANT cell viability assay, dark or blue light; assay type: cell-based, human; settings: for IC50 / PI (IC50,dark/IC50,light): PC-3, CyQUANT; for IC50: 48 h; for PI (IC50,dark/IC50,light): blue light 460 nm; for PI/Dose: PC‐3, 460 nm, dose 24.1 J cm‐2, PI from CyQUANT
Experimental: as §1, §2, §3

A549 cells = test: Superoxide anion production (ROS-ID Superoxide Detection Kit); assay type: cell-based, human; settings: 10 nM, photoactivated with blue light
Experimental: The types of ROS generated by the treatments were also investigated. Superoxide anion (O2^•–) production was monitored using the ROS-ID Superoxide Detection Kit (Enzo Life Sciences), which contains a cell-permeable probe that selectively emits orange fluorescence upon reacting with O2^•–. Following the treatments, cells were harvested and incubated with the probe for 30 min at 37 °C. Fluorescence emission from 1 × 10^4 cells was measured by flow cytometry (Ex/Em: 550/620 nm) and compared to that of control untreated cells. In addition, hydrogen peroxide (H2O2) generation was measured using the Hydrogen Peroxide Assay Kit (Cell-based) (Abcam). […] After 1 h of incubation at 37 °C, the median fluorescence of 1 × 10^4 cells was determined by flow cytometry (Ex/Em = 490/520 nm) and compared to that of control cells. All experiments were conducted in triplicate.

[1] = Lipophilicity by the shake flask method; assay type: physicochemical; settings: 1-octanol/water; for logD9.2: carbonate–bicarbonate buffer pH 9.2
Experimental: The partition coefficients of complexes 5, 6, 7, and 8 were determined by the standard “shake flask” method.[37],[84],[85] Octanol-saturated water (OSW) and water-saturated octanol (WSO) were prepared using analytical grade 1-octanol and ultrapure water. The complexes were dissolved in WSO and molar extinction coefficient was determined. Then, 2 mL of 25 μg/mL complex in WSO was shaken with 2 mL of OSW at 1500 rpm for 6 h at room temperature. To separate the phases, centrifugation was done at 4000 rpm for 10 min. The absorbance of WSO phase before and after shaking was measured. The absorbance of WSO before mixing minus the absorbance of WSO after mixing corresponds to the absorbance of the complex in OSW. The distribution coefficients (log Do/w) of the complexes were obtained from the ratio of the complexes present in 1-octanol and the aqueous phase (eq 3). Each experiment was repeated three times. To avoid protonation in complexes 5 and 6, a carbonate–bicarbonate buffer at pH 9.2 in OSW was used. [drawing 24] 3 where A1-oct corresponds to the absorbance of WSO phase and Atotal is the actual concentration of the WSO before shaking.

[2] = 1BR.3.G nonmalignant fibroblasts, dark, read-out: IC50,dark
[3] = 1BR.3.G, blue light 460 nm 1 h (24.1 J cm^–2), read-out: IC50,light
[4] = blue light 460 nm 1 h (24.1 J cm^–2), read-out: IC50,light
[5] = MRC-5, blue light 460 nm 1 h (24.1 J cm^–2), read-out: IC50,light
[6] = MRC-5 nonmalignant lung fibroblasts, dark, read-out: IC50,dark

| Compound | IC50 (1BR.3.G; [2]) | PI (IC50,dark/IC50,light) (1BR.3.G; 1BR.3.G) | IC50 (1BR.3.G; [3]) | IC50 (A549; [4]) | PI (IC50,dark/IC50,light) (A549) | IC50 (A549; dark, read-out: IC50,dark) | photoselectivity: IC50,light in A549 lower than IC50,dark in MRC-5 (A549) | phototoxicity indexes (A549) | IC50 (HeLa; [4]) | PI (IC50,dark/IC50,light) (HeLa) | IC50 (HeLa; dark, read-out: IC50,dark) | PI (IC50,dark/IC50,light) (MRC-5) | IC50 (MRC-5; [5]) | IC50 (MRC-5; [6]) | IC50 (PC-3; [4]) | PI (IC50,dark/IC50,light) (PC-3) | IC50 (PC-3; dark, read-out: IC50,dark) | superoxide anion (O2•–) increase in mean fluorescence (A549 cells) | logD9.2 [1] | logP [1] | further results |
| --- | --- | --- | --- | --- | --- | --- | --- | --- | --- | --- | --- | --- | --- | --- | --- | --- | --- | --- | --- | --- | --- |
| Cc1c(C)c(C)[c-](C)c1C.F[B-](F)(F)F.c1ccc2cc3nc4c5ccc[n+]6c5c5[c](cccc5c4nc3cc2c1)[Ir]6[n+]1cc[nH]c1 [complex 4, [(η^5-C5Me5)Ir(Im)(pbpn)]BF4] | 2000 ± 400 nM | 2451 | 0.8 ± 0.4 nM | 1 ± 0.4 nM | 2034 | 2100 ± 600 nM | 2480 times | approximately 1000 | 4.2 ± 0.9 nM | 370 | 1550 ± 300 nM | 790 | 3.1 ± 1 nM | 2480 ± 200 nM | 1.1 ± 0.6 nM | 2022 | 2280 ± 700 nM | 2.4 fold |  |  | PI/Dose (A549; listed as 4): 84; PI/Dose (A549; listed as Complex 4): 84.4; PI/Dose (PC-3; listed as 4): 84; PI/Dose (PC-3; listed as Complex 4): 83.9 |
| Cc1c(C)c(C)[c-](C)c1C.F[B-](F)(F)F.c1ccc2nc3c4ccc[n+]5c4c4[c](cccc4c3nc2c1)[Ir]5[n+]1ccn(CCN2CCCCC2)c1 [complex 5, [(η^5-C5Me5)Ir(Imepip)(pbpz)]BF4] |  |  |  |  |  |  |  |  |  |  |  |  |  |  |  |  |  |  | 1.10 ± 0.10 |  |  |
| Cc1c(C)c(C)[c-](C)c1C.F[B-](F)(F)F.c1ccc2cc3nc4c5ccc[n+]6c5c5[c](cccc5c4nc3cc2c1)[Ir]6[n+]1ccn(CCN2CCCCC2)c1 [complex 6, [(η^5-C5Me5) Ir(Imepip)(pbpn)]BF4] | 570 ± 60 nM | 644 | 0.9 ± 0.3 nM | 0.4 ± 0.2 nM | 911 | 330 ± 200 nM | 1750 times | approximately 1000 | 0.7 ± 0.2 nM | 1031 | 700 ± 270 nM | 929 | 0.8 ± 0.2 nM | 700 ± 80 nM | 1.2 ± 1 nM | 961 | 1160 ± 160 nM | 2.8 fold | 1.39 ± 0.07 |  | PI/Dose (HeLa; 460 nm, dose 24.1 J cm‐2, PI from CyQUANT): 42.7 |
| Cc1c(C)c(C)[c-](C)c1C.F[B-](F)(F)F.c1ccc(Cn2cc[n+]([Ir]3[c]4cccc5c6nc7ccccc7nc6c6ccc[n+]3c6c45)c2)cc1 [complex 7, [(η^5-C5Me5)Ir(bzIm)(pbpz)]BF4] |  |  |  |  |  |  |  |  |  |  |  |  |  |  |  |  |  |  |  | 1.65 ± 0.16 |  |
| Cc1c(C)c(C)[c-](C)c1C.F[B-](F)(F)F.c1ccc(Cn2cc[n+]([Ir]3[c]4cccc5c6nc7cc8ccccc8cc7nc6c6ccc[n+]3c6c45)c2)cc1 [complex 8, [(η^5-C5Me5)Ir(bzIm)(pbpn)]BF4] | 500 ± 40 nM | 942 | 0.5 ± 0.2 nM | 0.4 ± 0.3 nM | 1260 | 500 ± 200 nM | 1700 times | approximately 1000 | 0.8 ± 0.2 nM | 622 | 510 ± 100 nM | 863 | 0.8 ± 0.1 nM | 680 ± 100 nM | 0.5 ± 0.3 nM | 1179 | 640 ± 100 nM | 2.6 fold |  | 1.13 ± 0.03 | PI/Dose (A549): 52.3; PI/Dose (PC-3): 48.9 |
